Assay results: US20240409519A1, “HYDROGENATED QUINOXALINES” (OTSUKA PHARMACEUTICAL CO., LTD., priority 2021, published 2024)

Assays:
[1] = biological target: T1, norepinephrine (NE) uptake (Rattus norvegicus, UniProt Q63380); experiment: Norepinephrine (NE) uptake inhibitory activity using rat brain synaptosome; type: biochemical; settings: rat hippocampus synaptosome, tritium-labeled NE 12 nM; read-out: IC50 (nM), norepinephrine (NE) uptake inhibition
T1 construct: used as crude synaptosomal fraction; from tissue; host or cells: rat hippocampus, crude synaptosomal fraction
T1 sequence (Q63380 1-617): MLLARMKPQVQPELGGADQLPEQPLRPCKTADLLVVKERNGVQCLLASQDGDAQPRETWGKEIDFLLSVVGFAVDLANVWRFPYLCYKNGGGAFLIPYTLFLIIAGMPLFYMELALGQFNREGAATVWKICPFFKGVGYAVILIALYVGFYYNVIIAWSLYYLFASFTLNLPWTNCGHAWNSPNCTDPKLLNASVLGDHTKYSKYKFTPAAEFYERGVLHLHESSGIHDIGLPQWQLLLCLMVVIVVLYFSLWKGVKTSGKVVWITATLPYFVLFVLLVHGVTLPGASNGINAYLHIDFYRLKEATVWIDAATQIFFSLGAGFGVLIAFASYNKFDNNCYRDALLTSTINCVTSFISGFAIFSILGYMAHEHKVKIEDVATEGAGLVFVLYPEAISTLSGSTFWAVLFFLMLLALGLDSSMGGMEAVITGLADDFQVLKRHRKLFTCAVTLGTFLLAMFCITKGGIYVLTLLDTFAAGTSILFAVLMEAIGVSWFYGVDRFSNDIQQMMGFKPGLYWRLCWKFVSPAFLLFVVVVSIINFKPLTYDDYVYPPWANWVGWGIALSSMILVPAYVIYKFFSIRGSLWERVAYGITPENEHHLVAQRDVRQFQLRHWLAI
Description: (§1) Male Wistar rats were decapitated, each brain was removed, and the hippocampus was cut out. […] The homogenate was centrifuged at 1000 g at 4° C. for 10 minutes, and the supernatant was further centrifuged at 20000 g at 4° C. for 20 minutes. The pellet was suspended in an incubation buffer (20 mM Hepes buffer (pH 7.4) containing 10 mM glucose, 145 mM sodium chloride, 4.5 mM potassium chloride, 1.2 mM magnesium chloride and 1.5 mM calcium chloride) and used as crude synaptosomal fraction.
Each well of a 96-well round-bottom plate was used for the uptake reaction in a total volume of 200 μL solution containing purgurin (final concentration 10 μM) and ascorbic acid (final concentration 0.2 mg/mL).
After 10 minutes, the uptake reaction was terminated by suction filtration onto a 96-well glass fiber filter plate. The filters were rinsed with cold physi-ological saline solution, dried thoroughly, and micro scintillation 0 (Perkin-Elmer) was added thereto. Then, the residual radioactivity on the filters was measured.
The uptake value when only solvent was added was set as 100%, the uptake value when unlabeled NE (final concentration 10 μM) was added as 0% (nonspecific uptake value), and the 50% inhibitory concentration was calculated from the concentration of the test compound and its inhibitory activity.

dopamine (DA) uptake = biological target: T2, dopamine (DA) uptake (Rattus norvegicus, UniProt P23977); experiment: Dopamine (DA) uptake inhibitory activity using rat brain synaptosome; type: biochemical; settings: rat striatum synaptosome, tritium-labeled DA 2 nM; read-out: IC50 (nM), dopamine (DA) uptake inhibition
T2 construct: used as crude synaptosomal fraction; from tissue; host or cells: rat striatum, crude synaptosomal fraction
T2 sequence (P23977 whole entry): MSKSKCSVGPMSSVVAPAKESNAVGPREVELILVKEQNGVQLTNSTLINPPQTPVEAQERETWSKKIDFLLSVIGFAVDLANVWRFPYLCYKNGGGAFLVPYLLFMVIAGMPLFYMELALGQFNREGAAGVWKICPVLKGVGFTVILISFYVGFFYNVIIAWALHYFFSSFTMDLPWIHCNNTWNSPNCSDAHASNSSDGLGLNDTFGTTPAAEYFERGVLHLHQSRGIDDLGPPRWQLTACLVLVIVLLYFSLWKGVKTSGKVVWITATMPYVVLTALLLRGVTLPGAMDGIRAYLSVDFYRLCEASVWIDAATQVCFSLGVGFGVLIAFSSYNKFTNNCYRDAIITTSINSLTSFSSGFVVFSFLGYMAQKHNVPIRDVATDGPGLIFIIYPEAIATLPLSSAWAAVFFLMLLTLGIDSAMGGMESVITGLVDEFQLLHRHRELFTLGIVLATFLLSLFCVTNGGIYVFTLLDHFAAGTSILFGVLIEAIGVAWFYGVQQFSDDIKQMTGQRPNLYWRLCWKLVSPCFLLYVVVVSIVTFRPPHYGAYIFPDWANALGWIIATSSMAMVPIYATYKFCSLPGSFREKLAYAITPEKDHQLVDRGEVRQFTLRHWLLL
Description: as §1, with “striatum” for “hippocampus”
Each well of a 96-well round-bottom plate was used for the uptake reaction in a total volume of 200 μl solution containing purgurin (final concentration 10 μM) and ascorbic acid (final concentration 0.2 mg/mL). In other words, solvent, unlabeled DA or step-diluted test compound was added to each well, and one-tenth of the final volume of the synaptosomal fraction was added to each well, followed by pre-incubation at 37° C. for 10 minutes, and then tritium-labeled DA solution (final concentration 2 nM) was added and the uptake reaction was initiated at 37° C. After 10 minutes, the uptake reaction was terminated by suction filtration onto a 96-well glass fiber filter plate. The filters were rinsed with cold physi-ological saline solution, dried thoroughly, and micro scintillation 0 (Perkin-Elmer) was added thereto. Then, the residual radioactivity on the filters was measured.
The uptake value when only solvent was added was set as 100%, the uptake value when unlabeled DA (final concentration 10 μM) was added as 0% (nonspecific uptake value), and the 50% inhibitory concentration was calculated from the concentration of the test compound and its inhibitory activity.

CYP2D6 = biological target: T3, CYP2D6 (Homo sapiens, UniProt P10635); experiment: CYP inhibition test (1): inhibition rate (%) at one concentration, CYP2D6; type: in vitro ADME; settings: human liver microsomes, pH 7.4, probe bufuralol (0.01 mmol/L); test compound 0.01 mmol/L, human liver microsome 0.1 mg/mL, substrate bufuralol, 37° C. 10 minutes; read-out: inhibition rate (%) 2D6
T3 construct: a human liver microsome solution containing three CYP-specific substrates; from tissue; host or cells: human liver microsomes
T3 sequence (P10635 whole entry): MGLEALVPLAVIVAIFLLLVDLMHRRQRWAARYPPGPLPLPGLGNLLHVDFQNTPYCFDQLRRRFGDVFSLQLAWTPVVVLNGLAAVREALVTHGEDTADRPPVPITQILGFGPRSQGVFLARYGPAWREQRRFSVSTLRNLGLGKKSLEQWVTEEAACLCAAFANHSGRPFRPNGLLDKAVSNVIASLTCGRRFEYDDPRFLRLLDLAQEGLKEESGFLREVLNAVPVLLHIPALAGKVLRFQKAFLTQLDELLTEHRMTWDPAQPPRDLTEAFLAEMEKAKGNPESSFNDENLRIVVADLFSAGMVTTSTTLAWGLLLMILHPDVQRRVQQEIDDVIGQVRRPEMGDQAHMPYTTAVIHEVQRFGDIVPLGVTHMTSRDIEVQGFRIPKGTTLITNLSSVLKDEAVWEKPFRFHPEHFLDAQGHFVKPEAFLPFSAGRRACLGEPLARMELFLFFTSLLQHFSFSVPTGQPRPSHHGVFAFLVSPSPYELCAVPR
Description: (§2) A metabolic reaction was initiated by adding and mixing a test compound solution (final concentration 0.01 mmol/L) and a NADH/NADPH solution (final concentration 1 mmol/L) to a human liver microsome solution containing three CYP-specific substrates (final concentration 100 mmol/L potassium phosphate buffer solution (pH 7.4), 5 mmol/L magnesium chloride, 0.1 mg/mL human liver microsome, 0.005 mmol/L diclofenac (for CYP2C9), 0.01 mmol/L bufuralol (for […]), 0.005 mmol/L midazolam (for CYP3A4)). As an internal standard solution, a solution of each of stable isotopes of the metabolites (50 ng/mL [13C6] hydroxy diclofenac, 5 ng/mL [2H9] hydroxy bufuralol, and 5 ng/mL [13C6] hydroxy midazolam (all stable isotopes)) in methanol was prepared and used as a quenching solution.
(§3) Specifically, a metabolic reaction was initiated by adding and mixing 2 μL of a solution of a test compound in acetonitrile (or acetonitrile as a control) to 178 μL of a human liver microsome solution in ice water, followed by preincubation at 37° C. for 1 minute, and then adding 20 μL of a NADH/NADPH solution thereto. After incubation at 37° C. for 10 minutes, 50 μL of the reaction mixture was taken, and then it was added and mixed to 500 μL of a quenching solution to quech the reaction. The mixture was centrifuged (6130 g, 4° C., 10 minutes) and the supernatant was used as a sample for LC-MS/MS.
(§4) Peak area ratio ([peak area of metabolite]/[peak area of corresponding stable isotope]) was calculated for a metabolite and a stable isotope of the metabolite as measurement object. By comparing the peak area ratio of each test compound solution with that of the control, the inhibition rate (%) of each CYP species for each test compound was calculated from (1-[peak area ratio of each test compound solution]/[peak area ratio of control])×100.

CYP3A4 = biological target: T4, CYP3A4 (Homo sapiens, UniProt P08684); experiment: CYP inhibition test (1): inhibition rate (%) at one concentration, CYP3A4; type: in vitro ADME; settings: human liver microsomes, pH 7.4, probe midazolam (0.005 mmol/L); test compound 0.01 mmol/L, human liver microsome 0.1 mg/mL, substrate midazolam, 37° C. 10 minutes; read-out: inhibition rate (%) 3A4
T4 construct: a human liver microsome solution containing three CYP-specific substrates; from tissue; host or cells: human liver microsomes
T4 sequence (P08684 whole entry): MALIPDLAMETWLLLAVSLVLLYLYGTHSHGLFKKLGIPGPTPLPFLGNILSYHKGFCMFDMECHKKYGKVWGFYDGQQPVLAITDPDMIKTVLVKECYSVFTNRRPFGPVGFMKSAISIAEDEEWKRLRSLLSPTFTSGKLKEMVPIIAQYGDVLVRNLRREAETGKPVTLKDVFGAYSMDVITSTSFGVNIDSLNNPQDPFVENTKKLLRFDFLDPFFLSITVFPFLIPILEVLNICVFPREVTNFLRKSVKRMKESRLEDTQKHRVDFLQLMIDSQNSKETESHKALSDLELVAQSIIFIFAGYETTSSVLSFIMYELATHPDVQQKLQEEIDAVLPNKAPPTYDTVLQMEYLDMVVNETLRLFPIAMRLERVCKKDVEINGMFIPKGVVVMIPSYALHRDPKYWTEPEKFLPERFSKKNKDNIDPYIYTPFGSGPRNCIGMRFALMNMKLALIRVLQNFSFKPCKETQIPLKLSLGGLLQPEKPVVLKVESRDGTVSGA
Description: as §2, §3, §4

[2] = Metabolic stability test (human liver microsome, hepatic intrinsic clearance); type: in vitro ADME; settings: human liver microsomes, pH 7.4; human liver microsome 0.2 mg/mL, test compound 0.001 mmol/L, 37° C., 0, 10 and 20 minutes
Description: A metabolic reaction was initiated by adding and mixing a test compound solution (final concentration 0.001 mmol/L) and a NADH/NADPH solution (final concentration 1 mmol/L) to a human liver microsome solution (final concentration 100 mmol/L potassium phosphate buffer solution (pH 7.4), 5 mmol/L magnesium chloride, 0.2 mg/ml, human liver microsome). A solution of the internal standard in methanol was prepared and used as a quenching solution.
Specifically, a metabolic reaction was initiated by adding and mixing 2.5 μL of a solution of a test compound in acetonitrile to 222.5 μL of a human liver microsome solution in ice water, followed by preincubation at 37° C. for 1 minute, and then adding 25 μL of a NADH/NADPH solution thereto.
The mixture was centrifuged (6130 g, 4° C., 10 minutes) and the supernatant was used as a sample for LC-MS/MS.
Peak area ratio ([peak area of test compound]/[peak area of internal standard]) was calculated for the test compound and the internal standard.
The residual ratio of the test compound was calculated from ([Ratio of peak areas at each reaction time]/[Ratio of peak areas at 0 minute reaction time]).

Structure (SMILES)	IC50 [1]	IC50 (dopamine (DA) uptake)	inhibition at 10 min, 0.01 mmol/L (CYP2D6)	inhibition at 10 min, 0.01 mmol/L (CYP3A4)	microsomal CLint at 0.001 mmol/L [2]
Cc1c(OC(F)(F)CO)ccc(N2CC(C)(C)N[C@@H]3CCCC[C@@H]32)c1F [Example 70]	1 nM	44.5 nM	28.4%	17.6%	< 50 µL/min/mg
CC1(C)CN(c2cc(F)c(OC(F)(F)CO)cc2F)[C@H]2CCCC[C@H]2N1 [Example 71]	6.3 nM	81.4 nM	28.8%	-3.4%	< 50 µL/min/mg
CC1(C)CN(c2cc(F)c(OCCO)cc2F)[C@H]2CCCC[C@H]2N1 [Example 72]	7.9 nM	241 nM	17.9%	-2.4%	< 50 µL/min/mg
CC1(C)CN(c2ccc(OC(F)(F)CO)c(F)c2F)[C@H]2CCCC[C@H]2N1 [Example 73]	2.4 nM	68.7 nM	21.5%	5.9%	< 50 µL/min/mg
CC1(C)CN(c2cc(Cl)c(OC(F)(F)CO)cc2F)[C@H]2CCCC[C@@H]2N1 [Example 75]	9.7 nM	35.3 nM	19.3%	9.9%	< 50 µL/min/mg
CC1(C)CN(c2cc(Cl)c(OC(F)(F)CO)cc2F)[C@@H]2CCCC[C@H]2N1 [Example 76]	8.8 nM	60.5 nM	21.9%	12.4%	< 50 µL/min/mg
CC1(C)CN(c2cc(F)c(OC(F)(F)CO)cc2F)[C@H]2CCCC[C@@H]2N1 [Example 77]	7.1 nM	205 nM	18.1%	-1.9%	< 50 µL/min/mg
Cc1c(OC(F)(F)CO)ccc(N2CC(C)(C)N[C@H]3CCCC[C@@H]32)c1F [Example 79]	5.8 nM	224 nM	38.8%	17.1%	< 50 µL/min/mg
CC1(C)CN(c2ccc(OC(F)(F)CO)c(Cl)c2F)[C@@H]2CCCC[C@H]2N1 [Example 80]	12.4 nM	90 nM	20.9%	17.6%	57 µL/min/mg
